These results are taken from US6492397B1, “N-arylheteroarylalkyl imidazol-2-one compounds for treatment of arteriosclerosis” (Pharmacia Corporation, priority 1991, dated 2002).

Experiment [1] relates to rabbit aortic rings. Put plainly: Assay B: In Vitro Vascular Smooth Muscle Response for AII (antagonist activity in rabbit aortic rings). Format: cell-based. Particulars: Oryctolagus cuniculus, test antagonist at 10^-5 M, AII contraction, read-out: Assay B pA2 (converted). How it is done:
Assay B: In Vitro Vascular Smooth Muscle-Response for AII
The compounds of the invention were tested for antagonist activity in rabbit aortic rings. Male New Zealand white rabbits (2-2.5 kg) were sacrificed using an overdose of pentobarbital and exsanguinated via the carotid arteries. The thoracic aorta was removed, cleaned of adherent fat and connective tissue and then cut into 3-mm ring segments. The endothelium was removed from the rings by gently sliding a rolled-up piece of filter paper into the vessel lumen. The rings were then mounted in a water-jacketed tissue bath, maintained at 37° C., between moveable and fixed ends of a stainless steel wire with the moveable end attached to an FT03 Grass transducer coupled to a Model 7D Grass Polygraph for recording isometric force responses. The bath was filled with 20 ml of oxygenated (95% oxygen/5% carbon dioxide) Krebs solution of the following composition (mM): 130 NaCl, 15 NaHCO3, […], 1.2 NaH2PO4, 1.2 MgSO4, 2.5 CaCl2, and 11.4 glucose. The preparations were equilibrated for one hour before approximately one gram of passive tension was placed on the rings. Angiotensin II concentration-response curves were then recorded (3×10^−10 to 1×10^−5 M). Each concentration of AII was allowed to elicit its maximal contraction, and then AII was washed out repeatedly for 30 minutes before rechallenging with a higher concentration of AII. Aorta rings were exposed to the test antagonist at 10^−5 M for 5 minutes before challenging with AII. Adjacent segments of the same aorta ring were used for all concentration-response curves in the presence or absence of the test antagonist. The effectiveness of the test compound was expressed in terms of pA2 values and were calculated according to H. O. Schild [Br. J. Pharmacol. Chemother., 2,189-206 (1947)]. The PA2 value is the concentration of the antagonist which increases the EC50 value for AII by a factor of two. Each test antagonist was evaluated in aorta rings from two rabbits.

Experiment [2] relates to pressor response to AII. Put plainly: Assay C: In Vivo Intragastric Pressor Assay Response for AII Antagonists. More on the design: species or system rat. Particulars: for Assay C Duration: Dose: 3 mg/kg (i.g.), Sprague-Dawley rats, AII challenges up to 180 minutes after gavage; for inhibition in vivo at 3 mg/kg: Rattus norvegicus, po. As to the method: Assay C: In Vivo Intragastric Pressor Assay Response for AII Antagonists
Male Sprague-Dawley rats weighing 225-300 grams were anesthetized with methohexital (30 mg/kg, i.p.) and catheters were implanted into the femoral artery and vein. The catheters were tunneled subcutaneously to exit dorsally, posterior to the head and between the scapulae. The catheters were filled with heparin (1000 units/ml of saline). The rats were returned to their cage and allowed regular rat chow and water ad libitum. After full recovery from surgery (3-4 days), rats were placed in Lucite holders and the arterial line was connected to a pressure transducer. Arterial pressure was recorded on a Gould polygraph (mmHg). Angiotensin II was administered as a 30 ng/kg bolus via the venous catheter delivered in a 50 μl volume with a 0.2 ml saline flush. The pressor response in mm Hg was measured by the difference from pre-injection arterial pressure to the maximum pressure achieved. The AII injection was repeated every 10 minutes until three consecutive injections yielded responses within 4 mmHg of each other. These three responses were then averaged and represented the control response to AII. The test compound was suspended in 0.5% methylcellulose in water and was administered by gavage. The volume administered was 2 ml/kg body weight. The standard dose was 3 mg/kg. Angiotensin II bolus injections were given at 30, 45, 60, 75, 120, 150, and 180 minutes after gavage. The pressor response to AII was measured at each time point. The rats were then returned to their cage for future testing. A minimum of 3 days was allowed between tests. Percent inhibition was calculated for each time point following gavage by the following formula: [(Control Response−Response at time point)/Control Response]×100.

For experiment [3], the target named is smooth muscle angiotensin II receptor. Briefly: Assay A: Angiotensin II Binding Activity (125I-angiotensin II displacement, rat uterine membrane preparation). Particulars: 50% displacement of specifically bound 125I-AII, rat uterine membranes, 25° C., 60 min. How it is done: Assay A: Angiotensin II Binding Activity
Compounds of the invention were tested for ability to bind to the smooth muscle angiotensin II receptor using a rat uterine membrane preparation. […] Other chemicals were obtained from Sigma Chemical Co. This assay was carried out according to the method of Douglas et al [Endocrinology, 106, 120-124 (1980)]. Rat uterine membranes were prepared from fresh tissue. All procedures were carried out at 4° C. Uteri were stripped of fat and homogenized in phosphate-buffered saline at pH 7.4 containing 5 mM EDTA. The homogenate was centrifuged at 1500×g for 20 min., and the supernatant was recentrifuged at 100,000×g for 60 min. The pellet was resuspended in buffer consisting of 2 mM EDTA and 50 mM Tris-HCl (pH 7.5) to a final protein concentration of 4 mg/ml. Assay tubes were charged with 0.25 ml of a solution containing 5 mM MgCl2, 2 mM EDTA, 0.5% bovine serum albumin, 50 mM Tris-HCl, pH 7.5 and […] (approximately 10^5 cpm) in the absence or in the presence of unlabelled ligand. The reaction was initiated by the addition of membrane protein and the mixture was incubated at 25° C. for 60 min. The incubation was terminated with ice-cold 50 mM Tris-HCl (pH 7.5) and the mixture was filtered to separate membrane-bound labelled peptide from the free ligand. The incubation tube and filter were washed with ice-cold buffer. Filters were assayed for radioactivity in a Micromedic gamma counter. Nonspecific binding was defined as binding in the presence of 10 μM of unlabelled AII. Specific binding was calculated as total binding minus nonspecific binding. […] Binding data were analyzed by a nonlinear least-squares curve fitting program.

The mark [4] stands for this setting: first value of the pair (aorta rings from two rabbits).
The mark [5] stands for this setting: second value of the pair (aorta rings from two rabbits).

What is called inhibition in vivo is how much of the control response was suppressed. In general, pIC50 refers to the negative decadic logarithm of the IC50, by convention in mol/L. Higher therefore signals a small IC50.

Structures are written as SMILES. pIC50: −log10 of the molar value. Where two headings read alike, the source gives them in different places. Where only a bound is given, the exact number is not on record here.

Take `CCCc1cn(CCC)c(=O)n1Cc1ccc(-c2ccccc2-c2nnn[nH]2)nc1` [Example 2, 1,4-dipropyl-1,3-dihydro-3-[[6-[2-(1H-tetrazol-5-yl)phenyl]-3-pyridinyl]methyl]-2H-imidazol-2-one]: in experiment [1] (setting [4]), the Kb is 7.41 nM. Moreover, the Kb in experiment [1] (setting [5]) was 39.8 nM. Further, in experiment [2], the “Assay C Duration” value amounted to 180 min and the inhibition in vivo at 3 mg/kg was 25%. In experiment [3], the negative logarithm of the IC50 (pIC50) is 7.42.

Consider `CCCn1cc(CC(C)C)n(Cc2ccc(-c3ccccc3-c3nnn[nH]3)nc2)c1=O` [Example 3, 1-propyl-4-isobutyl-1,3-dihydro-3-[[6-[2-(1H-tetrazol-5-yl)phenyl]-3-pyridinyl]methyl]-2H-imidazol-2-one], for which the figures for the Kb in experiment [1] (setting [4]) and in experiment [1] (setting [5]) were 34.7 nM and 112 nM, respectively. The negative-log IC50 (pIC50) in experiment [3] is 6.11.

Take `CCCCn1cc(CC(C)C)n(Cc2ccc(-c3ccccc3-c3nnn[nH]3)nc2)c1=O` [Example 4, 1-butyl-4-isobutyl-1,3-dihydro-3-[[6-[2-(1H-tetrazol-5-yl)phenyl]-3-pyridinyl]methyl]-2H-imidazol-2-one]: the Kb was 19.1 nM in experiment [1] (setting [4]) and 81.3 nM in experiment [1] (setting [5]). This molecule showed a pIC50 in experiment [3] of 6.85.

Take `CCCCn1cc(CCC(C)C)n(Cc2ccc(-c3ccccc3-c3nnn[nH]3)nc2)c1=O` [Example 5, 1-butyl-4-isopentyl-1,3-dihydro-3-[[6-[2-(1H-tetrazol-5-yl)phenyl]-3-pyridinyl]methyl]-2H-imidazol-2-one]: the Kb in experiment [1] (setting [4]) is 2.29 nM; in experiment [1] (setting [5]), 5.89 nM. The same molecule gave a pIC50 in experiment [3] of 7.54.

In the case of `CCCCn1cc(C2CCCCC2)n(Cc2ccc(-c3ccccc3-c3nnn[nH]3)nc2)c1=O` [Example 7, 1-butyl-4-cyclohexyl-1,3-dihydro-3-[[6-[2-(1H-tetrazol-5-yl)phenyl]-3-pyridinyl]methyl]-2H-imidazol-2-one], in experiment [1] (setting [4]), the Kb is 17.8 nM. Besides, the Kb in experiment [1] (setting [5]) is 17.4 nM. In experiment [2], the “Assay C Duration” value stood at 180 min and the inhibition in vivo at 3 mg/kg came out at 10%. Moreover, in experiment [3], the negative logarithm of the IC50 (pIC50) was 7.09.

For the molecule `CCCCn1cc(CCC2CC2)n(Cc2ccc(-c3ccccc3-c3nnn[nH]3)nc2)c1=O` [Example 9, 1-butyl-4-(2-cyclopropylethyl)-1,3-dihydro-3-[[6-[2-(1H-tetrazol-5-yl)phenyl]-3-pyridinyl]methyl]-2H-imidazol-2-one], the Kb in experiment [1] (setting [4]) was 0.537 nM. The Kb in experiment [1] (setting [5]) was 1.35 nM. In experiment [2], the “Assay C Duration” value worked out at 180 min and testing at 3 mg/kg gave an inhibition in vivo of 10%. Further, the negative-log IC50 (pIC50) in experiment [3] was 7.96.

As to `CCCCc1cn(C(C)C)c(=O)n1Cc1ccc(-c2ccccc2-c2nnn[nH]2)nc1` [Example 16, 1-isopropyl-4-butyl-1,3-dihydro-3-[[6-[2-(1H-tetrazol-5-yl)phenyl]-3-pyridinyl]methyl]-2H-imidazol-2-one], the Kb in experiment [1] (setting [4]) was 3.8 nM. Further, in experiment [1] (setting [5]), the Kb was 1.7 nM. In experiment [2], the “Assay C Duration” value is greater than 180 min and the inhibition in vivo at 3 mg/kg amounted to 45%. The negative logarithm of the IC50 (pIC50) in experiment [3] is 7.70.

Turning to `CCCCc1cn(C(C)(C)C)c(=O)n1Cc1ccc(-c2ccccc2-c2nnn[nH]2)nc1` [Example 17, 1-tertbutyl-4-butyl-1,3-dihydro-3-[[6-[2-(1H-tetrazol-5-yl)phenyl]-3-pyridinyl]methyl]-2H-imidazol-2-one], in experiment [1] (setting [4]), the Kb was 1.66 nM. Further, the Kb in experiment [1] (setting [5]) is 2.34 nM. Also, in experiment [2], the “Assay C Duration” value was 180 min and the inhibition in vivo at 3 mg/kg was 10%. In experiment [3], this molecule had a negative-log IC50 (pIC50) of 7.77.

Take `CCCCc1cn(C2CCCC2)c(=O)n1Cc1ccc(-c2ccccc2-c2nnn[nH]2)nc1` [Example 23, 1-cyclopentyl-4-butyl-1,3-dihydro-3-[[6-[2-(1H-tetrazol-5-yl)phenyl]-3-pyridinyl]methyl]-2H-imidazol-2-one]: the figures for the Kb in experiment [1] (setting [4]) and in experiment [1] (setting [5]) were 0.912 nM and 2.51 nM, respectively. Besides, the pIC50 in experiment [3] was 7.00.

`CCCCc1cn(C2C3CC4CC(C3)CC2C4)c(=O)n1Cc1ccc(-c2ccccc2-c2nnn[nH]2)nc1` (stereo not shown) [Example 29, 1-(2-adamantyl)-4-butyl-1,3-dihydro-3-[[6-[2-(1H-tetrazol-5-yl)phenyl]-3-pyridinyl]methyl]-2H-imidazol-2-one] gave a pIC50 in experiment [3] of 7.29.

For `CCCCc1cn(C23CC4CC(CC(C4)C2)C3)c(=O)n1Cc1ccc(-c2ccccc2-c2nnn[nH]2)nc1` [Example 30, 1-(1-adamantyl)-4-butyl-1,3-dihydro-3-[[6-[2-(1H-tetrazol-5-yl)phenyl]-3-pyridinyl]methyl]-2H-imidazol-2-one], in experiment [3], the pIC50 was 7.19.

Regarding `CCCCc1cn(-c2ccccc2)c(=O)n1Cc1ccc(-c2ccccc2-c2nnn[nH]2)nc1` [Example 31, 1-phenyl-4-butyl-1,3-dihydro-3-[[6-[2-(1H-tetrazol-5-yl)phenyl]-3-pyridinyl]methyl]-2H-imidazol-2-one], the negative-log IC50 (pIC50) in experiment [3] was 7.35. This pIC50 and that of the molecule before are within 0.2 log units of each other.

Consider `CCCCc1cn(-c2ccccc2C)c(=O)n1Cc1ccc(-c2ccccc2-c2nnn[nH]2)nc1` [Example 33, 1-(2-methylphenyl)-4-butyl-1,3-dihydro-3-[[6-[2-(1H-tetrazol-5-yl)phenyl]-3-pyridinyl]methyl]-2H-imidazol-2-one], for which, in experiment [2], the “Assay C Duration” value is greater than 180 min and the inhibition in vivo at 3 mg/kg came to 65%. The molecule further showed a pIC50 in experiment [3] of 8.03.

The molecule `CCCCc1cn(-c2ccccc2OC)c(=O)n1Cc1ccc(-c2ccccc2-c2nnn[nH]2)nc1` [Example 34, 1-(2-methoxyphenyl)-4-butyl-1,3-dihydro-3-[[6-[2-(1H-tetrazol-5-yl)phenyl]-3-pyridinyl]methyl]-2H-imidazol-2-one] showed a negative-log IC50 (pIC50) in experiment [3] of 8.05.

Molecule `CCCCc1cn(-c2ccccc2C(C)C)c(=O)n1Cc1ccc(-c2ccccc2-c2nnn[nH]2)nc1` [Example 35, 1-(2-isopropylphenyl)-4-butyl-1,3-dihydro-3-[[6-[2-(1H-tetrazol-5-yl)phenyl]-3-pyridinyl]methyl]-2H-imidazol-2-one] gave a negative-log IC50 (pIC50) in experiment [3] of 7.85.

Consider `CCCCc1cn(-c2c(C)cccc2C)c(=O)n1Cc1ccc(-c2ccccc2-c2nnn[nH]2)nc1` [Example 38, 1-(2,6-dimethylphenyl)-4-butyl-1,3-dihydro-3-[[6-[2-(1H-tetrazol-5-yl)phenyl]-3-pyridinyl]methyl]-2H-imidazol-2-one], for which the negative-log IC50 (pIC50) in experiment [3] is 8.30.
